# In patent publication US10532980B2, “N-methyl pyrazoles” (Prosetta Antiviral, Inc., priority 2015, dated 2020):
# Tested on: Influenza A virus (A/WSN/1933(H1N1))
# Test: microbe, parasite or virus in culture
# Type: cell-based
# Conditions: MDCK, 24 h with compound, then 2 h drug-free medium
row,SMILES,EC90
1,"Cn1nc(C2CC2)cc1C(=O)NCc1cccc(C(F)(F)F)c1F [Compound 1, 3-cyclopropyl-N-(2-fluoro-3-(trifluoromethyl)benzyl)-1-methyl-1H-pyrazole-5-carboxamide]",400 nM
2,"CC(C)c1cc(C(=O)NCc2cccc(C(F)(F)F)c2F)n(C)n1 [Compound 2, N-(2 fluoro-3-(trifluoromethyl)benzyl)-3-isopropyl-1-methyl-1H pyrazole-5-carboxamide]",100 nM
3,"Cn1nc(C2CC2)cc1C(=O)NCc1cccc(C(F)(F)F)c1Cl [Compound 3, N-(2-chloro-3-(trifluoromethyl)benzyl)-3-cyclopropyl-1-methyl-1H-pyrazole-5-carboxamide]",1100 nM
4,"CC(C)c1cc(C(=O)NCc2cccc(C(F)(F)F)c2Cl)n(C)n1 [Compound 4, N-(2-chloro-3-(trifluoromethyl)benzyl)-3-isopropyl-1-methyl-1H-pyrazole-5-carboxamide]",100 nM
5,"COc1cc(CNC(=O)c2cc(C(C)(C)C)nn2C)ccc1Cl [Compound 5, 3-(tert-butyl)-N-(4-chloro-3-methoxybenzyl)-1-methyl-1H-pyrazole-5-carboxamide]",1500 nM
6,"COc1cc(CNC(=O)c2cc(C3CC3)nn2C)ccc1Cl [Compound 6, N-(4-chloro-3-methoxybenzyl)-3-cyclopropyl-1-methyl-1H-pyrazole-5-carboxamide]",1500 nM
7,"Cn1nc(C(C)(C)C)cc1C(=O)NCc1cccc(OC(F)(F)F)c1F [Compound 7, 3-(tert-butyl)-N-(2-fluoro-3-(trifluoromethoxy)benzyl)-1-methyl-1H-pyrazole-5-carboxamide]",1800 nM
8,"Cn1nc(C2CC2)cc1C(=O)NCc1cccc(OC(F)(F)F)c1F [Compound 8, 3-cyclopropyl-N-(2-fluoro-3-(trifluoromethoxy)benzyl)-1-methyl-1H-pyrazole-5-carboxamide]",1500 nM
9,"CC(C)c1cc(C(=O)NCc2cccc(OC(F)(F)F)c2F)n(C)n1 [Compound 9, N-(2-fluoro-3-(trifluoromethoxy)benzyl)-3-isopropyl-1-methyl-1H-pyrazole-5-carboxamide]",400 nM
10,"Cn1nc(C2CC2)cc1C(=O)NCc1cccc(OCC2CC2)c1F [Compound 10, 3-cyclopropyl-N-(3-(cyclopropylmethoxy)-2-fluorobenzyl)-1-methyl-1H-pyrazole-5-carboxamide]",100 nM
11,"Cc1ccc(CNC(=O)c2cc(C(C)(C)C)nn2C)cc1Cl [Compound 11, 3-(tert-butyl)-N-(3-chloro-4-methylbenzyl)-1-methyl-1H-pyrazole-5-carboxamide]",1500 nM
12,"COc1ccc(CNC(=O)c2cc(C(C)(C)C)nn2C)cc1Cl [Compound 12, 3-(tert-butyl)-N-(3-chloro-4-methoxybenzyl)-1-methyl-1H-pyrazole-5-carboxamide]",1800 nM
13,"CCCOc1ccc(CNC(=O)c2cc(C(C)C)nn2C)cc1Cl [Compound 13, N-(3-chloro-4-propoxybenzyl)-3-isopropyl-1-methyl-1H-pyrazole-5-carboxamide]",400 nM
14,"Cn1nc(C2CC2)cc1C(=O)NCc1ccc(OCC2CC2)c(Cl)c1 [Compound 14, N-(3-chloro-4-(cyclopropylmethoxy)benzyl)-3-cyclopropyl-1-methyl-1H-pyrazole-5-carboxamide]",400 nM
15,"CC(C)c1cc(C(=O)NCc2ccc(OCC3CC3)c(Cl)c2)n(C)n1 [Compound 15, N-(3-chloro-4-(cyclopropylmethoxy)benzyl)-3-isopropyl-1-methyl-1H-pyrazole-5-carboxamide]",400 nM
16,"CCOc1ccc(CNC(=O)c2cc(C(C)(C)C)nn2C)cc1Br [Compound 16, N-(3-bromo-4-ethoxybenzyl)-3-(tert-butyl)-1-methyl-1H-pyrazole-5-carboxamide]",1000 nM

row,SMILES,EC90
1,"CCOc1ccc(CNC(=O)c2cc(C(C)C)nn2C)cc1Br [Compound 17, N-(3-bromo-4-ethoxybenzyl)-3-isopropyl-1-methyl-1H-pyrazole-5-carboxamide]",400 nM
2,"COc1c(Br)cccc1CNC(=O)c1cc(C2CC2)nn1C [Compound 18, N-(3-bromo-2-methoxybenzyl)-3-cyclopropyl-1-methyl-1H-pyrazole-5-carboxamide]",1500 nM
3,"Cc1c(F)cccc1CNC(=O)c1cc(C2CC2)nn1C [Compound 19, 3-cyclopropyl-N-(3-fluoro-2-methylbenzyl)-1-methyl-1H-pyrazole-5-carboxamide]",1500 nM
4,"Cc1cccc(CNC(=O)c2cc(C3CC3)nn2C)c1C [Compound 20, 3-cyclopropyl-N-(2,3-dimethylbenzyl)-1-methyl-1H-pyrazole-5-carboxamide]",1500 nM
5,"Cc1cccc(CNC(=O)c2cc(C3CC3)nn2C)c1OC(F)F [Compound 21, 3-cyclopropyl-N-(2-(difluoromethoxy)-3-methylbenzyl)-1-methyl-1H-pyrazole-5-carboxamide]",2000 nM
6,"Cc1c(CNC(=O)c2cc(C3CC3)nn2C)cccc1C(F)(F)F [Compound 22, 3-cyclopropyl-1-methyl-N-(2-methyl-3-(trifluoromethyl)benzyl)-1H-pyrazole-5-carboxamide]",300 nM
7,"COc1c(CNC(=O)c2cc(C3CC3)nn2C)cccc1C(F)(F)F [Compound 24, 3-cyclopropyl-N-(2-methoxy-3-(trifluoromethyl)benzyl)-1-methyl-1H-pyrazole-5-carboxamide]",200 nM
8,"COc1c(CNC(=O)c2cc(C(C)C)nn2C)cccc1C(F)(F)F [Compound 25, 3-isopropyl-N-(2-methoxy-3-(trifluoromethyl)benzyl)-1-methyl-1H-pyrazole-5-carboxamide]",400 nM
9,"COc1ccc(CNC(=O)c2cc(C3CC3)nn2C)cc1C(F)(F)F [Compound 26, 3-cyclopropyl-N-(4-methoxy-3-(trifluoromethyl)benzyl)-1-methyl-1H-pyrazole-5-carboxamide]",800 nM
10,"COc1cc(CNC(=O)c2cc(C(C)(C)C)nn2C)ccc1C [Compound 27, 3-(tert-butyl)-N-(3-methoxy-4-methylbenzyl)-1-methyl-1H-pyrazole-5-carboxamide]",1500 nM
11,"COc1cccc(CNC(=O)c2cc(C3CC3)nn2C)c1C [Compound 28, 3-cyclopropyl-N-(3-methoxy-2-methylbenzyl)-1-methyl-1H-pyrazole-5-carboxamide]",1500 nM
12,"COc1cccc(CNC(=O)c2cc(C(C)C)nn2C)c1C [Compound 29, 3-isopropyl-N-(3-methoxy-2-methylbenzyl)-1-methyl-1H-pyrazole-5-carboxamide]",1500 nM
13,"COc1cccc(CNC(=O)c2cc(C3CC3)nn2C)c1C(F)(F)F [Compound 30, 3-cyclopropyl-N-(3-methoxy-2-(trifluoromethyl)benzyl)-1-methyl-1H-pyrazole-5-carboxamide]",300 nM
14,"COc1cccc(CNC(=O)c2cc(C(C)(C)C)nn2C)c1O [Compound 31, 3-(tert-butyl)-N-(2-hydroxy-3-methoxybenzyl)-1-methyl-1H-pyrazole-5-carboxamide]",1000 nM
15,"COc1cccc(CNC(=O)c2cc(C(C)C)nn2C)c1OC [Compound 32, N-(2,3-dimethoxybenzyl)-3-isopropyl-1-methyl-1H-pyrazole-5-carboxamide]",1000 nM
16,"CCCOc1c(CNC(=O)c2cc(C3CC3)nn2C)cccc1OC [Compound 33, 3-cyclopropyl-N-(3-methoxy-2-propoxybenzyl)-1-methyl-1H-pyrazole-5-carboxamide]",1500 nM
